Usually pGI50 stands for −log10 of the GI50, conventionally taken in molar units. Lower therefore signals a large GI50.

The test system of test [1] is Panel NCI-60 (60 carcinoma cell lines). Kind of test: Antiproliferative activity against NCI60 cell line. In kind it is functional, Homo sapiens.
The subject of the next test is Mus musculus. Kind of test: Activity against NCI60 cell line xenograft in nude mouse by HF assay. In kind it is functional.

Activity calls are given as the source filed them. The rule behind the calls is not given here.

In test [1], `CCCCCCC(O)C(O)CCC(O)C1CCC(CCCCC(O)CC2=CC(C)OC2=O)O1` (stereo unspecified) [ACETOGENINS] yielded a pGI50 of 5.53. Also, the outcome with Mus musculus was inactive.
In test [1], `COc1cc2c(c(OC)c1OC)-c1ccc(OC)c(=O)cc1[C@@H](NC(C)=O)CC2` [COLCHICINE] had a pGI50 of 5.8. The Activity in the test with Mus musculus was determined as 19.6.
For the compound `O=C(OC12CC3CC(CC(C3)C1)C2)c1ccc(NCc2cc(O)ccc2O)cc1`, the pGI50 in test [1] was 5.44. Further, the Activity in the test with Mus musculus was determined as 10.83.
The corresponding values for `COc1cccc2c1C(=O)c1c(O)c3c(c(O)c1C2=O)CC(O)(C(=O)CO)CC3OC1CC(N)C(O)C(C)O1` (stereo unspecified) are 6.53 and 20.67.
The corresponding values for `CCC1(O)C(=O)OCc2c1cc1n(c2=O)Cc2cc3ccccc3nc2-1` (stereo unspecified) are 5.99 and 13.67.
The corresponding values for `Nc1ccn([C@@H]2O[C@H](CO)[C@@H](O)[C@@H]2O)c(=O)n1` [CYTARABINE] are 5 and 11.
On to `CN(Cc1cnc2nc(N)nc(N)c2n1)c1ccc(C(=O)N[C@@H](CCC(=O)O)C(=O)O)cc1` [METHOTREXATE], for which the pGI50 in test [1] is 5.55. Further, in the test on Mus musculus, the Activity is reported as 16.8.
The corresponding values for `N/C(S)=N/N=C/c1ccc(O)cn1` are 5.92 and 15.

These data come from ChEMBL document CHEMBL1138988, “Assessment of in vitro and in vivo activities in the National Cancer Institute's anticancer screen with respect to chemical structure, target specificity, and mechanism of action” (2006).
